Assay results from publication PMC8160210, “Single tryptophan Y160W mutant of homooligomeric E. coli purine nucleoside phosphorylase implies that dimers forming the hexamer are functionally not equivalent” (Scientific Reports, 2021).
Where two headings read alike, the source gives them in different places.

Key:
[1] = biological target: T1, WT E. coli PNP (Escherichia coli, UniProt P0ABP8); assay: Near-UV CD titrations; format: binding; details: for Kd: CD titrations with phosphate, three-binding-site model, 25 °C
T1 construct: made in house
T1 sequence (P0ABP8 2-239 limits assumed): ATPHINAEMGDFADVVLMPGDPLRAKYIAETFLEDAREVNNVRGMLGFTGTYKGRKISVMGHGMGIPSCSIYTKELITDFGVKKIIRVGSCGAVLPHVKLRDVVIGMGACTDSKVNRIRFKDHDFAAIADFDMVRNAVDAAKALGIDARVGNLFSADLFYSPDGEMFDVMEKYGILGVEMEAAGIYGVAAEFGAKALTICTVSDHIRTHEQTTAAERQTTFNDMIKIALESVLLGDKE
Protocol: (§1) Experiments were performed with Chirascan spectrophotometer (Applied Photophysics), in the near UV region (240–290 nm), thus in the region where aromatic amino acids absorb. Full spectra of the protein/complex were recorded, with 0.2 nm resolution and 2 s averaging per point. Enzyme concentration was in the range of 20–120 μM, the 50 mM Tris/HCl buffer pH 7.6 was used, ligands were dissolved in the same buffer. All measurements were performed at 25 °C. Upon addition of each volume of phosphate solution spectrum was recorded in the range 230–300 nm, in the amino acids absorption region, with 0.25 nm step and 2 s per point signal averaging. Spectra were smoothed with Savitzky-Golay algorithm[44] using a fourth degree polynomial and eleven points in the averaging window. The wavelengths of the greatest signal change were determined by calculating differential spectra. These wavelengths were used to plot the titration curves. Global analysis of five to seven curves was performed with DynaFit4[40].
(§2) Three models were taken into account in analysis of binding curves: model with one (first equation below), two (first two equations) and three binding sites. P+L⇔PLwithKd1PL+L⇔PLLwithKd2PLL+L⇔PLLLwithKd3
(§3) The model with one binding site is based on the assumption that all monomers are equivalent, and there is no cooperation between them. In the model with two binding sites the basic functional unit of the protein is a dimer, possible non-equivalence of binding sites or cooperativity between active sites in the dimer are taken into account (in the case of no cooperativity dissociation constants should be related statistically: Kd2 = 4Kd1), the dimers within hexamer are equivalent. The model with three binding sites is based on the crystallographic structures of binary and ternary complexes of PNP with ligands, where two of the dimers are in the “open-closed” conformation, but the third dimer is symmetrical, in the “open-open” conformation. Thus, active sites in the open conformation belonging to “open-closed” and “open-open” dimer may not be equivalent. […]
(§4) Titration series were analysed globally, always starting from the simplest, one-binding-site model. […] For all tested models the Akaike information criterion[23] was also calculated. […] Analysed models were fitted to the raw data, whereas graphs presented in this study were prepared from the normalised data and the fitted curves. […] Responses are defined as changes in a measured physical quantity related to the formation of subsequent protein–ligand complexes: intrinsic protein fluorescence intensity, fluorescence intensity of the dye, heat and ellipticity for fluorimetric, thermophoretic, calorimetric and CD titrations, respectively. […]

[2] = biological target: T2, WT PNP/Pi complex (Escherichia coli, UniProt P0ABP8); assay: Thermophoretic (MST) titrations with formycin A; parameters: species or system E. coli; details: two-binding-site model, 50 mM phosphate, pH 7.6, 25 °C
T2 construct: made in house
Protocol: (§5) Measurements were performed with Monolith NT115 (NanoTemper). Enzyme was labelled with NT647 fluorescent dye (NanoTemper) according to the protocol provided by the manufacturer. Labelled proteins show fluorescence excitation and emission maxima of approximately 650 and 670 nm, respectively. The series of titrations were performed at a constant protein concentration. Both proteins (WT and mutant), and ligands were dissolved in 50 mM Tris/HCl pH 7.6 buffer, measurements were performed at 25 °C. […] In the pre-experiments, it was carefully checked for both proteins, WT and Y160W mutant whether any sign of aggregation or inactivation occurs, and if mutant behaviour is similar to that of the WT enzyme. An example of the raw thermophoretic curves obtained with the relative heating laser power at 60% and 80% are shown in the Supplementary Information (Figure S7).
(§6) Experiments of the nucleoside analogue binding were performed in the presence of saturating concentration of phosphate, i.e. 50 mM. For both, WT PNP and Y160W mutant seven repetitions of each curve were measured, for a single power of the heating laser. The power of the heating laser at which the strongest change of the thermophoretic signal upon ligand binding occurs was selected, namely 80% for both enzyme variants. The raw MST traces, for two highest tested laser powers, 60% and 80%, are presented in the Supplementary information (Figure S7) Protein concentration in the capillary was constant and equal to 0.215 μM and 0.0751 μM for the WT protein and the Y160W mutant, respectively. Series of titrations were analysed globally using the DynaFit4 program[40] (see below).
as §2, §3, §4

[3] = biological target: T3, Y160W mutant/Pi complex (Escherichia coli, UniProt P0ABP8, Y161W); assay: Thermophoretic (MST) titrations with formycin A; parameters: species or system E. coli
T3 construct: made in house; host or cells: E. coli DH5α-T1
T3 sequence (P0ABP8 2-239 Y161W, one chain of several): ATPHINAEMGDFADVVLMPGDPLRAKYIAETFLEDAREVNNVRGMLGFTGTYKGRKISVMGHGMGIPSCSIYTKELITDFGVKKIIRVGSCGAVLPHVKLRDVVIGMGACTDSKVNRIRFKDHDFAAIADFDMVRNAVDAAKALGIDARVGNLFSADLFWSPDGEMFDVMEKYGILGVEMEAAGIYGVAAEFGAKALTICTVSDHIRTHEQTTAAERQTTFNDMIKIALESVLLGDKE
Protocol: as §5, §6, §2, §3, §4

[4] = biological target: Y160W PNP mutant (Escherichia coli, UniProt P0ABP8, Y161W); assay: Near-UV CD titrations; format: binding, E. coli; parameters: made in house; host or cells: E. coli DH5α-T1; details: for Kd: CD titrations with phosphate, three-binding-site model, 25 °C
Y160W PNP mutant, sequence (P0ABP8 2-239 Y161W): as the sequence (P0ABP8 2-239 Y161W, one chain of several) above
Protocol: as §1, §2, §3, §4

[5] = 50 mM Tris/HCl pH 7.6, read-out: Kd1 ± SD
[6] = 50 mM Tris/HCl pH 7.6, read-out: Kd2 ± SD
[7] = 50 mM Tris/HCl pH 7.6, read-out: Kd3 ± SD

Nc1ncnc2c([C@@H]3O[C@H](CO)[C@@H](O)[C@H]3O)[nH]nc12 [FA, Formycin A]
Change in CD signal upon binding ([1]; formycin A binding): no changes in the CD signal | Kd ([2]; Kd1 ± SD): 0.0107 µM | Kd ([2]; Kd3 ± SD): 186 µM | Kd ([3]; Kd1 ± SD, three-binding-site model, 50 mM phosphate, pH 7.6, 25 °C): 0.137 µM | Kd ([3]; Kd3 ± SD, three-binding-site model, 50 mM phosphate, pH 7.6, 25 °C): 1750 µM | Kd ([3]; read-out: Kd2 ± SD, three-binding-site model, 50 mM phosphate, pH 7.6, 25 °C): 110 µM | Change in CD signal upon binding ([4]; formycin A binding): no changes in the CD signal

O=P(O)(O)O [Pi, Orthophosphate]
Kd [1, 5]: 0.58 µM | Kd [1, 6]: 107 µM | Kd [1, 7]: 1030 µM | Kd [4, 5]: 4.13 µM | Kd [4, 6]: 128 µM | Kd [4, 7]: 2330 µM
